Measurements reported in patent US5258286A, “Method of terminating isocitrate dehydrogenase reaction” (Oriental Yeast Co., Ltd., priority 1985, dated 1993).

System: iCDH (isocitrate dehydrogenase)
Details: EDTA concentration of 5 mM; 0.4 mM MgCl2, 1.6 mM isocitric acid, 1 mM NADP+, 0.1M triethanolamine hydrochloride pH 8.5, 25° C.; FIG. 1
Procedure: A varied amount of EDTA was added to 3 ml of a 0.1M triethanolamine hydrochloride solution (pH 8.5) containing the above-listed ingredients to provide an EDTA concentration of 0 to 10 mM. Each of the resulting mixtures was kept at a temperature of 25° C., and admixed with 20 μl of iCDH of about 3 u/ml, followed by measurement of the iCDH activity based on an increase in absorption at 340 nm by spectrophotometry.

## O=C(O)CN(CCN(CC(=O)O)CC(=O)O)CC(=O)O [EDTA]
  iCDH activity: completely loses its activity
